In the supplement of paper PMC11061612:

What was measured:
Assay in all cases: combination Emax (second highest fraction inhibited in the dose matrix, 72 h); higher = more inhibition; extreme values may be limits of the assay
[1] = system: GAK (Melanoma)
Outline: (§1)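 Cell lines grown in DMEM/F12 or RPMI with 10% FBS were plated in 1536-well plates and held 24 hours at 37°C, 5% CO2 before 72 hours of exposure to two-drug dose matrices, with DMSO typically at 0.2%. CellTiter-Glo 2.0 luminescence gave viability, which was converted to inhibition. Vehicle wells were set to 0 and blank wells to 1. Combination Emax is the second-highest inhibition in the matrix, and Bliss excess is the observed combination effect minus the expected EA + EB − EA·EB, where EA and EB are the single-agent effects.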

[2] = system: MOLT-13 (T-Lymphoblastic Leukemia)
Outline: as §1

[3] = system: TUR (Acute Myeloid Leukemia)
Outline: as §1

[4] = system: NCI-H1963 (Small Cell Lung Carcinoma)
Outline: as §1

[5] = system: ZR-75-30 (Breast Carcinoma)
Outline: as §1

[6] = system: SK-CO-1 (Colorectal Carcinoma)
Outline: as §1

[7] = system: SAT (Head and Neck Carcinoma)
Outline: as §1

[8] = system: SK-N-SH (Neuroblastoma)
Outline: as §1

[9] = system: SNU-423 (Hepatocellular Carcinoma)
Outline: as §1

[10] = system: CPC-N (Small Cell Lung Carcinoma)
Outline: as §1

[11] = system: ES6 (Ewing's Sarcoma)
Outline: as §1

[12] = system: NAMALWA (Burkitt's Lymphoma)
Outline: as §1

[13] = system: NCI-H226 (Mesothelioma)
Outline: as §1

[14] = system: CL-11 (Colorectal Carcinoma)
Outline: as §1

SMILES | combination Emax [1] | combination Emax [2] | combination Emax [3] | combination Emax [4] | combination Emax [5] | combination Emax [6] | combination Emax [7] | combination Emax [8] | combination Emax [9] | combination Emax [10] | combination Emax [11] | combination Emax [12] | combination Emax [13] | combination Emax [14]
Cc1cc2ncnn2cc1Nc1ncc2c(n1)n(C1CCOCC1)c(=O)n2C [AZD7648] + C=CCn1c(=O)c2cnc(Nc3ccc(N4CCN(C)CC4)cc3)nc2n1-c1cccc(C(C)(C)O)n1 [AZD1775] (first compound max 10 µM, partner max 1 µM) | 0.713 | 0.953 | 0.736 | 0.873 | 0.137 | 0.521 | 0.623 | 0.884 | 0.497 | 0.931 | 0.505 | 0.96 | 0.297 | 0.638
CC1(C)CCC(CN2CCN(c3ccc(C(=O)NS(=O)(=O)c4ccc(NCC5CCOCC5)c([N+](=O)[O-])c4)c(Oc4cnc5[nH]ccc5c4)c3)CC2)=C(c2ccc(Cl)cc2)C1 [Venetoclax] + Cn1cnc2c(F)c(Nc3ccc(Br)cc3Cl)c(C(=O)NOCCO)cc21 [Selumetinib] (first compound max 1 µM, 7x7, partner max 3 µM) | 0.731 | 0.804 | 0.179 | 0.76 | 0.159 | 0.727 | 0.566 | 0.553 | 0.192 | 0.734 | 0.162 | 0.286 | 0.0891 | 0.528
CN(CCO)CC[C@H](CSc1ccccc1)Nc1ccc(S(=O)(=O)NC(=O)c2ccc(N3CCC([C@@H](O)c4ccccc4-c4ccc(Cl)cc4)CC3)cc2)cc1S(=O)(=O)C(F)(F)F [AZD4320] + C[C@@H](Nc1cc(F)cc(F)c1)c1cc(C(=O)N(C)C)cc2c(=O)cc(N3CCOCC3)oc12 [AZD8186] (first compound max 1 µM, 7x7, partner max 3 µM) | 0.312 | 0.996 | 0.19 | 1 | 0.285 | 0.917 | 0.446 | 0.986 | 0.547 | 0.95 | 0.463 | 0.573 | 0.279 | 0.378
Cc1c2c(nn1C)CSCc1cc(n(C)n1)CSc1cc(c3ccccc3c1)OCCCc1c(C(=O)O)n(C)c3c-2c(Cl)ccc13 [AZD5991] + CC1(C)CCC(CN2CCN(c3ccc(C(=O)NS(=O)(=O)c4ccc(NCC5CCOCC5)c([N+](=O)[O-])c4)c(Oc4cnc5[nH]ccc5c4)c3)CC2)=C(c2ccc(Cl)cc2)C1 [Venetoclax] (first compound max 1 µM, 7x7, partner max 1 µM) | 0.523 | 1 | 0.637 | 0.824 | 0.779 | 0.16 | 0.703 | 0.921 | 0.144 | 0.289 | 0.255 | 0.994 | 0.196 | 0.137
COc1cccc(OCCCN)c1-c1cc(Nc2cnc(C#N)cn2)n[nH]1 [Prexasertib] + CN(C)CCCOc1ccc(-c2ccc3ncc4c(c3c2)n(C2CCOCC2)c(=O)n4C)cn1 [AZD0156] (first compound max 1 µM, 7x7, partner max 1 µM) | 0.718 | 1 | 1 | 0.975 | 0.117 | 0.695 | 0.579 | 0.876 | 0.713 | 1 | 0.573 | 0.991 | 0.179 | 0.734
COc1cc2c(cc1OCCCCCOc1cc3c(cc1OC)C(=O)N1C=C(C)C[C@H]1C=N3)N=C[C@@H]1CC(C)=CN1C2=O [SG3199] + O=C(c1cc(Cc2n[nH]c(=O)c3ccccc23)ccc1F)N1CCN(C(=O)C2CC2)CC1 [Olaparib] (first compound max 0.001 µM, 7x7, partner max 10 µM) | 0.106 | 0.226 | 0.112 | 0.293 | 0.308 | 0.46 | 0.17 | 0.274 | 0.146 | 0.243 | 0.144 | 0.575 | 0.0668 | 0.111
Cc1cc2ncnn2cc1Nc1ncc2c(n1)n(C1CCOCC1)c(=O)n2C [AZD7648] + C[C@@H]1COCCN1C2=NC(=NC(=C2)C3(CC3)[S@](=N)(=O)C)C4=C5C=CNC5=NC=C4 [AZD6738] (first compound max 10 µM, 7x7, partner max 10 µM) | 0.578 | 0.903 | 0.907 | 0.728 | 0.17 | 0.563 | 0.494 | 0.859 | 0.524 | 0.911 | 0.601 | 0.936 | 0.304 | 0.767
CN(CCO)CC[C@H](CSc1ccccc1)Nc1ccc(S(=O)(=O)NC(=O)c2ccc(N3CCC([C@@H](O)c4ccccc4-c4ccc(Cl)cc4)CC3)cc2)cc1S(=O)(=O)C(F)(F)F [AZD4320] + CCN(CCO)CCCOc1ccc2c(Nc3cc(CC(=O)Nc4cccc(F)c4)[nH]n3)ncnc2c1 [AZD2811] (first compound max 1 µM, 7x7, partner max 1 µM) | 0.257 | 1 | 0.255 | 1 | 0.173 | 0.889 | 0.375 | 0.761 | 0.466 | 0.971 | 0.161 | 0.48 | 0.49 | 0.0894
C=CCn1c(=O)c2cnc(Nc3ccc(N4CCN(C)CC4)cc3)nc2n1-c1cccc(C(C)(C)O)n1 [AZD1775] + O=C(c1cc(Cc2n[nH]c(=O)c3ccccc23)ccc1F)N1CCN(C(=O)C2CC2)CC1 [Olaparib] (first compound max 1 µM, partner max 10 µM) | 0.804 | 0.975 | 0.663 | 0.845 | 0.213 | 0.662 | 0.449 | 0.882 | 0.731 | 0.93 | 0.444 | 0.96 | 0.342 | 0.584
CN(CCO)CC[C@H](CSc1ccccc1)Nc1ccc(S(=O)(=O)NC(=O)c2ccc(N3CCC([C@@H](O)c4ccccc4-c4ccc(Cl)cc4)CC3)cc2)cc1S(=O)(=O)C(F)(F)F [AZD4320] + C=CCn1c(=O)c2cnc(Nc3ccc(N4CCN(C)CC4)cc3)nc2n1-c1cccc(C(C)(C)O)n1 [AZD1775] (first compound max 1 µM, partner max 1 µM) | 0.833 | 1 | 0.904 | 1 | 0.173 | 0.867 | 0.708 | 0.934 | 0.804 | 0.997 | 0.572 | 0.982 | 0.407 | 0.507
Cc1c2c(nn1C)CSCc1cc(n(C)n1)CSc1cc(c3ccccc3c1)OCCCc1c(C(=O)O)n(C)c3c-2c(Cl)ccc13 [AZD5991] + Cn1cnc2c(F)c(Nc3ccc(Br)cc3Cl)c(C(=O)NOCCO)cc21 [Selumetinib] (first compound max 1 µM, 7x7, partner max 3 µM) | 0.776 | 1 | 0.629 | 0.427 | 0.281 | 0.818 | 0.803 | 0.414 | 0.27 | 0.237 | 0.209 | 0.999 | 0.224 | 0.525
Cc1c2c(nn1C)CSCc1cc(n(C)n1)CSc1cc(c3ccccc3c1)OCCCc1c(C(=O)O)n(C)c3c-2c(Cl)ccc13 [AZD5991] + CCN(CCO)CCCOc1ccc2c(Nc3cc(CC(=O)Nc4cccc(F)c4)[nH]n3)ncnc2c1 [AZD2811] (first compound max 1 µM, 7x7, partner max 1 µM) | 0.314 | 1 | 0.536 | 0.842 | 0.511 | 0.73 | 0.811 | 0.614 | 0.335 | 0.835 | 0.29 | 0.98 | 0.262 | –
C[C@@H](c1ccc2nccn2c1)n1nnc2ncc(-c3cnn(C)c3)nc21 [Savolitinib] + CN(CC[C@H](CSC1=CC=CC=C1)NC2=C(C=C(C=C2)S(=O)(=O)NC(=O)C3=CC=C(C=C3)N4CCC(CC4)[C@H](C5=CC=CC=C5C6=CC=C(C=C6)Cl)O)S(=O)(=O)C(F)(F)F)CCO [AZD4320] (first compound max 1 µM, 7x7, partner max 1 µM) | – | 0.912 | 0.135 | 1 | – | – | 0.189 | – | – | – | – | – | – | 0.173
CN(CCO)CC[C@H](CSc1ccccc1)Nc1ccc(S(=O)(=O)NC(=O)c2ccc(N3CCC([C@@H](O)c4ccccc4-c4ccc(Cl)cc4)CC3)cc2)cc1S(=O)(=O)C(F)(F)F [AZD4320] + C1CN(CCC1(C(=O)N[C@@H](CCO)C2=CC=C(C=C2)Cl)N)C3=NC=NC4=C3C=CN4 [Capivasertib] (first compound max 1 µM, 7x7, partner max 3 µM) | 0.135 | 0.913 | 0.559 | 1 | 0.307 | 0.659 | 0.418 | 0.707 | 0.406 | 0.945 | 0.291 | – | 0.227 | 0.147
CC(=O)c1c(C)c2cnc(Nc3ccc(N4CCNCC4)cn3)nc2n(C2CCCC2)c1=O [Palbociclib] + CN(CC[C@H](CSC1=CC=CC=C1)NC2=C(C=C(C=C2)S(=O)(=O)NC(=O)C3=CC=C(C=C3)N4CCC(CC4)[C@H](C5=CC=CC=C5C6=CC=C(C=C6)Cl)O)S(=O)(=O)C(F)(F)F)CCO [AZD4320] (first compound max 10 µM, 7x7, partner max 1 µM) | – | 0.975 | 0.381 | 1 | – | – | 0.485 | – | – | – | – | – | – | 0.759
COc1nnc2ccc(N3CCC(c4ccc(OCCN5CCN(C)C(=O)[C@H]5C)cc4)CC3)nn12 [AZD5153] + CN(CC[C@H](CSC1=CC=CC=C1)NC2=C(C=C(C=C2)S(=O)(=O)NC(=O)C3=CC=C(C=C3)N4CCC(CC4)[C@H](C5=CC=CC=C5C6=CC=C(C=C6)Cl)O)S(=O)(=O)C(F)(F)F)CCO [AZD4320] (first compound max 1 µM, 7x7, partner max 1 µM) | – | 1 | 0.626 | 1 | – | – | 0.804 | – | – | – | – | – | – | 0.782
